Here are results for 2 molecules from paper PMC10831936 (iScience, 2024).

The test system of assay [1] is HTR2A NFAT. Nature of the assay: ERBBprofiler barcoded NFAT pathway sensor, HTR2A co-transfected. To be noted: Rattus norvegicus, PC-12, 6 h, read-out: HTR2A NFAT IC50.
The test system of assay [2] is ERBB4 EGR1p. Nature of the assay: ERBBprofiler barcoded EGR1p pathway sensor, ERBB4 co-transfected. To be noted: Rattus norvegicus, PC-12, 6 h, read-out: ERBB4 EGR1p IC50.
In assay [3] the test system is ERBB2/3 NFAT. The experiment in a line: ERBBprofiler barcoded NFAT pathway sensor, ERBB2/3 co-transfected. It counts as cell-based, Rattus norvegicus. Conditions: PC12 cells; constant EGF 30 ng/mL, EGFld 10 ng/mL, serotonin 1 μM; 6 h; barcode readout; relative IC50.
The test system of assay [4] is EGFR. Set-up: method as in Hasako et al., 2018. Conditions: phospho-WB in NIH/3T3 cell lines; ref Hasako et al., 2018; read-out: IC50_Literature, EGFR; cited from earlier work.
The target in assay [5] is HTR2A (Homo sapiens, UniProt P28223). Nature of the assay: ERBBprofiler barcoded split TEV assay, HTR2A.
Assay [6] relates to EGFR NFAT. Nature of the assay: ERBBprofiler barcoded NFAT pathway sensor, EGFR co-transfected. In kind it is cell-based, Rattus norvegicus.
Assay [7] has as its system ERBB2/3 EGR1p. Nature of the assay: ERBBprofiler barcoded EGR1p pathway sensor, ERBB2/3 co-transfected. To be noted: Rattus norvegicus, PC-12, 6 h, read-out: ERBB2/3 EGR1p IC50.
Assay [8] deals with ERBB4. Also on record: method as in Hasako et al., 2018. To be noted: biochemical kinase activity assay by Carna Biosciences; ref Hasako et al., 2018; read-out: IC50_Literature, ERBB4; cited from earlier work.
Assay [9] deals with EGFR (Homo sapiens, UniProt P00533). The experiment in a line: ERBBprofiler barcoded split TEV assay, EGFR.
The subject of assay [10] is ERBB receptors, HTR2A, and downstream signaling pathways. Nature of the assay: ERBBprofiler multiplexed barcoded assay, overall statements across all receptor batches and sensors. To be noted: for CRE sensor response at high compound concentration (barcoded): 10 μM compound, PC12 cells, stimulation mix.
Assay [11] concerns the target ERBB2/3 (Homo sapiens, UniProt P04626+P21860). The experiment in a line: ERBBprofiler barcoded split TEV assay, ERBB2/3.
The subject of assay [12] is EGFR EGR1p. Nature of the assay: ERBBprofiler barcoded EGR1p pathway sensor, EGFR co-transfected. Conditions: Rattus norvegicus, PC-12, 6 h, read-out: EGFR EGR1p IC50.
Assay [13] concerns ERBB2. Set-up: method as in Hasako et al., 2018. To be noted: biochemical kinase activity assay by Carna Biosciences; ref Hasako et al., 2018; read-out: IC50_Literature, ERBB2; cited from earlier work.
The subject of assay [14] is HTR2A EGR1p. Nature of the assay: ERBBprofiler barcoded EGR1p pathway sensor, HTR2A co-transfected. To be noted: Rattus norvegicus, PC-12, 6 h, read-out: HTR2A EGR1p IC50.
Assay [15] concerns ERBB4 NFAT. Nature of the assay: ERBBprofiler barcoded NFAT pathway sensor, ERBB4 co-transfected. It counts as cell-based, Rattus norvegicus. Conditions: PC12 cells; constant EGF 30 ng/mL, EGFld 10 ng/mL, serotonin 1 μM; 6 h; barcode readout; relative IC50.
For assay [16], the target named is ERBB4 (Homo sapiens, UniProt Q15303). Nature of the assay: ERBBprofiler barcoded split TEV assay, ERBB4. To be noted: ERBB4 UAS (split TEV) IC50, PC12 cells; constant EGF 30 ng/mL, EGFld 10 ng/mL, serotonin 1 μM; 6 h; barcode readout; relative IC50.
Assay [17] has as its system calcium. The experiment in a line: Fluo-4 AM calcium assay in PC12 cells. To be noted: stimulation mix. It counts as cell-based, Rattus norvegicus.
Experimental: On DIV2, cells were pre-equilibrated in 10 μM Fluo-4 a.m. (Thermo Fisher Scientific, F14201) away from light for 1 h at 37°C. Next, cells were incubated in the indicator-free starvation medium to allow de-esterification for 20 min away from light at 37°C. Background fluorescence was then measured using the BMG POLARstar Optima Microplate Reader prior to adding the treatments and continuously measuring the fluorescence for the next 30 min. Fluorescence was measured using the bottom optics.
Assay [18] deals with cAMP. The experiment in a line: GloSensor cAMP assay in PC12 cells. It counts as cell-based, Rattus norvegicus. On the technique in general: cAMP levels reflect the balance of adenylyl cyclase and phosphodiesterase activity.
Experimental: The GloSensor cAMP assay was conducted with the same parameters (50,000 PC12 cells per 96-well) as described above for the firefly luciferase assay, with however, three differences. Specifically, (1) 30 ng/well of the pGloSensor-22F plasmid (Promega, E2301) was used for transfection, and (2) on DIV3, cells were equilibrated in assay medium containing a 2% v/v dilution of D-luciferin (Synchem, bc219) for 2 h at 37°C before (3) the treatment of compounds for 15 min and lysis in 1x passive lysis buffer (Promega) and luciferase activity measurement.
The test system of assay [19] is NCI-H1975 cells. Set-up: method as in Dong et al., 2019. Conditions: growth of NCI-H1975 cells; ref Dong et al., 2019; read-out: IC50_Literature, EGFR; cited from earlier work.
Assay [20] concerns CRE sensor. Nature of the assay: CRE sensor only luciferase assay in PC12 cells. In kind it is cell-based, Rattus norvegicus.
Experimental: 50,000 PC12 cells were seeded per 96-well onto poly-L-lysin (PLL)-coated plates and transfected the following day (day in vitro 1, DIV1) with assay plasmids using Lipofectamine 3000 (Thermo Fisher Scientific). […] For pathway assays, the receptor plasmids (15 ng/well) and pathway reporter plasmids (15 ng/well) pEGR1p-luc2 for monitoring MAPK signaling, pCRE-CMVmin-luc2 for monitoring cAMP/Ca^2+ signaling, or p6xNFAT-CMVmin-luc2 for Ca^2+ signaling were used. Transient transfections were conducted according to the manufacturer’s instructions. On DIV2, cells were starved in medium containing 1% FCS for 16 h. […] In the case of antagonist assays, compounds were added at increasing doses together with the stimulus. Cells were lysed in 1x passive lysis buffer (Promega) and subjected to a firefly luciferase assay using a self-made substrate for firefly luciferase.[100] Luciferase activity was analyzed in a Mithras LB 940 Multimode Microplate Reader (Berthold Technologies). All assays were run in 96-well plates using six replicates per condition.
Assay [21] concerns ERBB4. Set-up: method as in Nam et al., 2011. Conditions: tyrosine kinase assay kit (Panvera); ref Nam et al., 2011; read-out: IC50_Literature, ERBB4; cited from earlier work.
Assay [22] concerns Calu-3 and NCI-H1781 cells. Also on record: method as in Dong et al., 2019. Conditions: growth of Calu-3 and NCI-H1781 cells; ref Dong et al., 2019; read-out: IC50_Literature, ERBB2; cited from earlier work.

“Also recorded” adds a separate entry of the source. Like-named read-outs stand apart in the source and are kept apart here.

ERBB4 (Homo sapiens, UniProt Q15303), sequence (Q15303 26-1308): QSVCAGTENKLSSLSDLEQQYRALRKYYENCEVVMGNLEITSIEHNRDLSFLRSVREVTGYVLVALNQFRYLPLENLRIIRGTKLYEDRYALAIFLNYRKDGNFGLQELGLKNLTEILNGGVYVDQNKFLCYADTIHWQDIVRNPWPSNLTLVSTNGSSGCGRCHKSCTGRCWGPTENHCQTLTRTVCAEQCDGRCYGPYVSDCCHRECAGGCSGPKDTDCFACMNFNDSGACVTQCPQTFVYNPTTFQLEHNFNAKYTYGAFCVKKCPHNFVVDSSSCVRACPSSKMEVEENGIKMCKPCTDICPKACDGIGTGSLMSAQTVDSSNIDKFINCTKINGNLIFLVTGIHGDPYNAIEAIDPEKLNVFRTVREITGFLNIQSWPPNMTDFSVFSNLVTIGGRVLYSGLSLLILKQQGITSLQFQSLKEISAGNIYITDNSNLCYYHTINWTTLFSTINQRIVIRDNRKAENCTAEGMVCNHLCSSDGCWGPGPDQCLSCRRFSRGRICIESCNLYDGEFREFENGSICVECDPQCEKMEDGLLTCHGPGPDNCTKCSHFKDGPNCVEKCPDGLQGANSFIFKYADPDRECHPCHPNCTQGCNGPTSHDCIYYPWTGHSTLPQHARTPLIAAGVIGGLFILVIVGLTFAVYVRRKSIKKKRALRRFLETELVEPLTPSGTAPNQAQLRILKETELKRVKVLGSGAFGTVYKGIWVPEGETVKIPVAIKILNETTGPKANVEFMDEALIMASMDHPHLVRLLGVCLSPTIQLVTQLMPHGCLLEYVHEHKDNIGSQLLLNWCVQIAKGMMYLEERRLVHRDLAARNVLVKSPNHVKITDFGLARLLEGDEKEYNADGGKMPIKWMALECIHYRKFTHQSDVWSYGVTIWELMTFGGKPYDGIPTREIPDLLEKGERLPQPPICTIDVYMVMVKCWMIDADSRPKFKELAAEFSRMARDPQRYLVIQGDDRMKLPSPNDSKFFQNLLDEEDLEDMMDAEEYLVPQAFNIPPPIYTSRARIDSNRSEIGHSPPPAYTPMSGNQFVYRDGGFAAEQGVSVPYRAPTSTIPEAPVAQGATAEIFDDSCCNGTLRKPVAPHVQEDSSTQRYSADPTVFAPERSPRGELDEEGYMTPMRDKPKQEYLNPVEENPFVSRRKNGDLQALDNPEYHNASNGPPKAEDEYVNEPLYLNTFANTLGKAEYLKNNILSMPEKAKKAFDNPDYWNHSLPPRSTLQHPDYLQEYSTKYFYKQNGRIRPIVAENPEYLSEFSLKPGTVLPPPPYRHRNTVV
ERBB2/3, sequence (P04626 23-1255): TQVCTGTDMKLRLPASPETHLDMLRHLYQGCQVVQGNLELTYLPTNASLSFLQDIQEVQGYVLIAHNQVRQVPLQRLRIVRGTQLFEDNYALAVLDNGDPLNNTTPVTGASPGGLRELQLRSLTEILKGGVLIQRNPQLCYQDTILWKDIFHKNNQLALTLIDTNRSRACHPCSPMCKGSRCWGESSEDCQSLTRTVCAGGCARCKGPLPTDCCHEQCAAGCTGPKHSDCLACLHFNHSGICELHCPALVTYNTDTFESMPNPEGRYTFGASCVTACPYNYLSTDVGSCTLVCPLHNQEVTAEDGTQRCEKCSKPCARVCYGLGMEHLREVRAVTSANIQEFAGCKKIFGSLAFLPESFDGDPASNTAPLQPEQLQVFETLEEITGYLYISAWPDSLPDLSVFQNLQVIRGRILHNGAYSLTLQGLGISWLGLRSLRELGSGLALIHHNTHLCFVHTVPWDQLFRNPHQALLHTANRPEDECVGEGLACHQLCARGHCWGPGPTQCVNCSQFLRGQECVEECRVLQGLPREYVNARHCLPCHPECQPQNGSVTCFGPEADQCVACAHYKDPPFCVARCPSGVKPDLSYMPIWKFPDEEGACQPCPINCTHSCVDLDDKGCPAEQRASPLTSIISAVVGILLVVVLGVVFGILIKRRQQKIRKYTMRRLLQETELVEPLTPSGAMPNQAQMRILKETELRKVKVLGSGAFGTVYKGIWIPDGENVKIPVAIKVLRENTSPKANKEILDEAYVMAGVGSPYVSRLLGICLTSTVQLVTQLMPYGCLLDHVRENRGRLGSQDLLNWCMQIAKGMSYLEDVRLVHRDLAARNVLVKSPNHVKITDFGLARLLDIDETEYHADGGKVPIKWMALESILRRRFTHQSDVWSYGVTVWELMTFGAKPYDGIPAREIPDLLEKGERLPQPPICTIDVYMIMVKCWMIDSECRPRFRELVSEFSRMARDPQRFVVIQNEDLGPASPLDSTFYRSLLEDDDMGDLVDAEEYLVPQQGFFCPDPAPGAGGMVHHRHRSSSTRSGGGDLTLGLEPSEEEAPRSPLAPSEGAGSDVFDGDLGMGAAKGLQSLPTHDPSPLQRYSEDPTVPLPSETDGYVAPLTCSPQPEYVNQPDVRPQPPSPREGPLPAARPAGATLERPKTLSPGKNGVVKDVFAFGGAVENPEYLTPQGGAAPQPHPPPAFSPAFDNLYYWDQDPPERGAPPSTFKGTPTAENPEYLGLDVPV
ERBB2/3, sequence (P21860 20-1342): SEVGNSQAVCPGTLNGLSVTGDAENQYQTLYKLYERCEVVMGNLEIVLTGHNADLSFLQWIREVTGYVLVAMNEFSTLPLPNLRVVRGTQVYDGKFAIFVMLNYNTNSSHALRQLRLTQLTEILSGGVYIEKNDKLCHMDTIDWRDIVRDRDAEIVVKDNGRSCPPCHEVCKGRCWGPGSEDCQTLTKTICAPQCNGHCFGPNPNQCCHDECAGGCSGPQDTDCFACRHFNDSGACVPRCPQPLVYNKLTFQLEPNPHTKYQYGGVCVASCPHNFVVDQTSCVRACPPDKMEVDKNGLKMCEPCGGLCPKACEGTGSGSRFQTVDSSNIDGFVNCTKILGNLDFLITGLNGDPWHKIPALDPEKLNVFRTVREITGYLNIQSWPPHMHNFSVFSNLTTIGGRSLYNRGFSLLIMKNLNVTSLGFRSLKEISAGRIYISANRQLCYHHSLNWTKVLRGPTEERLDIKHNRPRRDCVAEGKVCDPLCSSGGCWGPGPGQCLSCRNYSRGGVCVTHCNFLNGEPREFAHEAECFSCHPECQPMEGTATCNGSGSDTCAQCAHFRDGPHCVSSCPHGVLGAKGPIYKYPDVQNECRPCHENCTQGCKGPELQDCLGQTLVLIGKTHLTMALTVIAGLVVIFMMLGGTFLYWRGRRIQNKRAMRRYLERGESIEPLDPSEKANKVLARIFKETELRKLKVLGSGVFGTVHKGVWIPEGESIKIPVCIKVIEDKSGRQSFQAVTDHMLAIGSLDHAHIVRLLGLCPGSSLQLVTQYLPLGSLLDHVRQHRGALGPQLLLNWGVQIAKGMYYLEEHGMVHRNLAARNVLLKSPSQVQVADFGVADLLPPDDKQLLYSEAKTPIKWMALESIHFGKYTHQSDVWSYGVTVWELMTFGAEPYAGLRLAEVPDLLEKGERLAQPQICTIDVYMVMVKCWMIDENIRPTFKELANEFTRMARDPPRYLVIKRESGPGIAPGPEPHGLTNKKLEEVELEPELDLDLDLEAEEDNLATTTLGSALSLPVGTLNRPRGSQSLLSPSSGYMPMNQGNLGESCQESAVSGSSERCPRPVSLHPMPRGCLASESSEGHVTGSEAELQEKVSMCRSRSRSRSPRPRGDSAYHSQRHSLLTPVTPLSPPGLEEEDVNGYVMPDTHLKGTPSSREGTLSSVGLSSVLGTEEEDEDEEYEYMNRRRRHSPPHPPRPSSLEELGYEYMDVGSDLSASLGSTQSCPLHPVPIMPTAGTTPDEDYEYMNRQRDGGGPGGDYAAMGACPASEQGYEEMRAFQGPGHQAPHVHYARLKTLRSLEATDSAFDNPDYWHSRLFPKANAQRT
HTR2A, sequence (P28223 whole entry): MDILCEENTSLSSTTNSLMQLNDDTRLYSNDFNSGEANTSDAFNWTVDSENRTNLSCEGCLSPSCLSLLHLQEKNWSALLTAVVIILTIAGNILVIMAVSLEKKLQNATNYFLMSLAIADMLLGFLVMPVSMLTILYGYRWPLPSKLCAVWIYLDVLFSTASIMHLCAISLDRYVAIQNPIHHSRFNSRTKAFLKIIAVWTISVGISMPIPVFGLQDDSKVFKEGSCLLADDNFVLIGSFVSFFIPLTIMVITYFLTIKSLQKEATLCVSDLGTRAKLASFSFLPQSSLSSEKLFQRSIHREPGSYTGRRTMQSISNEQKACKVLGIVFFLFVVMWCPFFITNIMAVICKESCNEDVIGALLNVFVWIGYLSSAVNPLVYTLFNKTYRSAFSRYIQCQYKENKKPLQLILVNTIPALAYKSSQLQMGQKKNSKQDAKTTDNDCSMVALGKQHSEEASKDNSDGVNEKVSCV

As to `C=CC(=O)N[C@H]1C=C(C)c2c(-c3cnc4ccccc4c3)c3c(N)ncnc3n2C1` [TAS6417, TAS6417 (Zipalertinib)], the IC50 in assay [1] was 848 nM; in [2], 55 nM; in assay [4], 368 nM; in [5], 444 nM; in [7] it was 267 nM; in assay [8], 4 nM. In addition, the IC50 in assay [9] was 92 nM; in assay [11], 206 nM; in assay [12], 95 nM; in assay [13] it was 390 nM; in [14], 193 nM; in assay [16] it was 91 nM. In addition, in [3], the “ERBB2/3 NFAT IC50” value is “no effect (EGFR, ERBB2/3, ERBB4) - 0.848 µM (HTR2A, small effect)”. Moreover, the “EGFR NFAT IC50” value in [6] is given as “no effect (EGFR, ERBB2/3, ERBB4) - 0.848 µM (HTR2A, small effect)”. For the same molecule, the “CRE sensor response at high compound concentration (barcoded)” value in assay [10] is listed as “upregulated CRE sensor response”. Further, in assay [10] (ERBBprofiler, no receptor named in the cell), the “IC50_ERBBpro, cAMP/Ca2+ (CRE sensor)” value is recorded as “no effect”. The “ERBB4 NFAT IC50” value in [15] is “no effect (EGFR, ERBB2/3, ERBB4) - 0.848 µM (HTR2A, small effect)”.

As a reminder, the EC50 is the midpoint of the concentration-response curve. Low values mean an effect from little substance, high ones a need for much substance. On to `C=CC(=O)N1CCC(Oc2cc3c(Nc4ccc(Cl)c(Cl)c4F)ncnc3cc2OC)CC1` [Poziotinib, Poziotinib (HM781-36B)], for which the “effect on calcium levels (Fluo-4 AM)” value in assay [17] is reported as “but not calcium levels”. The IC50 in [1] is 16 nM; in assay [2] it was 0.87 nM; in [5], 4.56 nM; in assay [7], 0.79 nM; in assay [11], 2.63 nM; in [19], 1.7 to 8.78 nM. Also, the IC50 in assay [12] was 0.89 nM; in assay [14] it was 1.14 nM; in [21], 23.5 nM; in assay [22], 2.5 to 6.2 nM; in [16] it was 3.11 nM. Besides, in assay [6] (PC12 cells, constant EGF 30 ng/mL, EGFld 10 ng/mL, serotonin 1 μM, 6 h, barcode readout, relative IC50), the “EGFR NFAT IC50” value is recorded as “no effect (EGFR, ERBB2/3, ERBB4) - 0.016 µM (HTR2A)”. Besides, in assay [18], the “effect on cAMP levels (GloSensor)” value is “increase of cAMP”. The EC50 was found to be 2910 nM in [18] (Rattus norvegicus, PC-12, 0.25 h, constant stimulation mix, 15 min, cAMP increase) and 1640 nM in assay [20] (Rattus norvegicus, PC-12). The “compound concentration resulting in elevated cAMP (GloSensor)” value in assay [18] (stimulation mix) is at least 3 µM. The “CRE sensor response at high compound concentration (barcoded)” value in [10] was “upregulation of the CRE sensor; also recorded: upregulated CRE sensor response”. For the same molecule, in [20] (PC12 cells, CRE sensor only, stimulation mix), the “effect on CRE sensor activity (luciferase), in words” value is “CRE sensor activation at high compound concentrations”. The “ERBB4 NFAT IC50” value in [15] is given as “no effect (EGFR, ERBB2/3, ERBB4) - 0.016 µM (HTR2A)”.
